Where “and” joins values, the source holds several entries; their conditions need not be identical. Equal entries are not always repeated.
Columns and labels:
[1] = cited from earlier work; for crossing of the hematoencephalic barrier (in words): in vivo
topoisomerase i = target: T1, topoisomerase i (Homo sapiens, UniProt P11387); test: Persistence of topoisomerase I-mediated DNA cleavage after addition of 0.6 M NaCl; format: biochemical; conditions: for Reversibility / persistence of the DNA cleavages (in words): after sodium chloride (0.6 M), about 10 minutes; for PERSISTENCE (%) of DNA cleavage on selected sites: drug 10 μm, 20 minutes incubation, then sodium chloride (0.6 M), examined after about 10 minutes
T1 sequence (P11387 1-765): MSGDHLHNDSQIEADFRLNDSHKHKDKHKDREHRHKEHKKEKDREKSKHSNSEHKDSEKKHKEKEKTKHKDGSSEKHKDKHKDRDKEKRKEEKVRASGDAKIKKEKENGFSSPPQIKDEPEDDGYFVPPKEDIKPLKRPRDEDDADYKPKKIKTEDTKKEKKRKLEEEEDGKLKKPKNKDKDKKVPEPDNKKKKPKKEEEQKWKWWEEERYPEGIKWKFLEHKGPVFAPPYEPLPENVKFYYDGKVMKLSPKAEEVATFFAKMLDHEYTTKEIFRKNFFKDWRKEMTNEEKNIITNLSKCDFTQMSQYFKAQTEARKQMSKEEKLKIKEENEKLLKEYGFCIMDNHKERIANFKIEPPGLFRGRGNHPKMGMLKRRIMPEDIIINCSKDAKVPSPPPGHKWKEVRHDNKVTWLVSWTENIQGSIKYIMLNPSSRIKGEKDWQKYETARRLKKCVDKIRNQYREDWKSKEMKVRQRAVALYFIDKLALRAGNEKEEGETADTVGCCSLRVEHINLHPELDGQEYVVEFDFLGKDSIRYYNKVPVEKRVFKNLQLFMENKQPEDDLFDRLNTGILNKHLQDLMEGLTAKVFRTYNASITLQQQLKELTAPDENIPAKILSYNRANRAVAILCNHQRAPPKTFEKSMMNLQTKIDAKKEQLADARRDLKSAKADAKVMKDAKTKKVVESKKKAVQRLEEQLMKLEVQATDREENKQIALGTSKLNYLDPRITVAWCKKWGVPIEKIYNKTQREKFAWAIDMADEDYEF
Description: An important drawback of conventional camptothecins is the reversibility of the their bond in the ternary complex (drug-DNA-enzyme).
After 20 minutes of incubation of the drug in the reaction mixture containing labelled DNA and the purified enzyme, sodium chloride (0.6 M) was added with the scope of assisting the dissociation of the ternary complex.

[2] = test system: NCI H460 lung non-small cell carcinoma; test: Antiproliferative activity test (cytotoxic activity) on NCI H460 cells; format: cell-based, human; conditions: H-460
Description: Cytotoxic activity of the compounds of the present invention was assayed in cell systems of human tumour cells, using the antiproliferative activity test as a method of evaluation of the cytotoxic potential.
The cell line used is a lung non-small cell carcinoma that belongs to non-small cells hystotype named NCI H460.

[3] = Water solubility (remark in Table 4); format: physicochemical
[4] = test system: MKN-28 human gastric carcinoma; test: ST 1737 per os in athymic nude mice bearing s.c. MKN-28 human gastric carcinoma; format: in vivo; conditions: q4d × 4; for TVI % (tumor volume inhibition % in treated over control tumors): at 11–12 day after last treatment
L1210 = murine leukemia = test: Antitumor activity on tumor models: L1210 leukemia, increase in life span; format: in vivo, mice; conditions: L1210, 15 mg/kg
Excerpt: (§1) This broad spectrum of anticancer activity was confirmed in mice transplanted with human tumor xenografts, including NSCLC (H460, A549), prostate ca. (JCA-1), glioblastoma (GBM/7), gastric ca. (MKN28), osteosarcoma (U2OS), ovarian ca. (A2780/Dx, A2780/DDP) and colon (HT29, CoBA) carcinomas as well as in murine lung cancer (M109) and leukaemia model (L1210).

A2780 ovarian ca = test: Antitumor activity on tumor models: A2780; format: in vivo, mice; conditions: A2780, 15 mg/kg
Excerpt: as §1

HT29 colon ca = test: Antitumor activity on tumor models: HT29; format: in vivo, mice; conditions: HT29, 15 mg/kg
Excerpt: as §1

A2780/DDP ovarian ca = test: Antitumor activity on tumor models: A2780/DDP; format: in vivo, mice; conditions: 15 mg/kg
Excerpt: as §1

CoBA colon ca = test: Antitumor activity on tumor models: CoBA; format: in vivo, mice; conditions: 15 mg/kg
Excerpt: as §1

lung carcinoma NCI H460 = test: Antitumoral activity in nude mice implanted s.c. with NCI H460 tumour fragments (Table 1); conditions: q4d × 4; for Efficacy (TVI %): evaluated 5–10 days after the last treatment
Description: For the in vivo studies, the solubilization was carried out in 10% DMSO in bidistilled water, being impossible the solubilization in saline, and the administration for the oral route was carried out at a volume of 10 ml/kg.
Atimic nu/nu Swiss mice (Charles River, Calco, Italia), ageing 10–12 weeks were used. The animals were maintained in laminar flow rooms, according to the guidelines of the United Kingdom Co-ordination Committee Cancer Research. Experimental protocols were approved by the Ethical Committee for animal experimentation of Istituto Nazionale per lo Studio e Cura dei Tumori.
Tumour fragments of about 2×2×2 mm coming from mice to which were inoculated s.c. 10^6 cells NCI H460/topo, were implanted s.c. bilaterally in groups of 5 mice each.
Twice a week, using a Vernier caliper, the width, minimum diameter (l), length and maximum diameter (L) of the tumors were measured, in mm. The tumour volume (mm^3) was calculated according to the formula I^2×L/2. Efficacy of the molecule was evaluated as TVI percent of the treated group versus the control group according to the formula TVI%=100−(T/C×100), wherein T is the mean value of the tumour volume of the treated group and C of control one.

JCA-1 prostate ca = test: Antitumor activity on tumor models: JCA-1; format: in vivo, mice; conditions: JCA-1, 15 mg/kg
Excerpt: as §1

IGROV-1 ovarian ca = test: Antitumor activity on tumor models: IGROV-1; format: in vivo, mice; conditions: IGROV-1, 15 mg/kg
DU145 prostate ca = test: Antitumor activity on tumor models: DU145; format: in vivo, mice; conditions: DU145, 15 mg/kg
U87 glioblastoma = test: Antitumor activity on tumor models: U87; format: in vivo, mice; conditions: U87, 15 mg/kg
H460 = NSCLC = test: Antitumor activity on tumor models: H460; format: in vivo, mice; conditions: H460, 15 mg/kg
Excerpt: as §1

A2780/Dx ovarian ca = test: Antitumor activity on tumor models: A2780/Dx; format: in vivo, mice; conditions: A2780/Dx, 15 mg/kg
Excerpt: as §1
The high cytotoxic potency of the compounds of the present invention, herein represented in an exemplary way with one of the preferrred compounds, CPT 184, is also reflected by the potent antitumor activity. […] Moreover, the compounds of the present invention, in particular the CPT 184, were able to induce 100% CR in the A2780/DX tumor characterized by a MDR-phenotype.

GBM/7 glioblastoma = test: Antitumor activity on tumor models: GBM/7; format: in vivo, mice; conditions: GBM/7, 15 mg/kg
Excerpt: as §1

In the case of CC[C@@]1(O)C(=O)OCc2c1cc1n(c2=O)Cc2cc3ccccc3nc2-1 [Camptothecin], the “crossing of the hematoencephalic barrier (in words)” value [1] is listed as “does not cross hematoencephalic barrier in significant amount”, the “Reversibility / persistence of the DNA cleavages (in words)” value (topoisomerase i) is listed as “almost complete reversibility of the cleavages” and the “PERSISTENCE (%) of DNA cleavage on selected sites” value (topoisomerase i) is listed as 16%.
With CC[C@@]1(O)C(=O)OCc2c1cc1n(c2=O)Cc2c-1nc1ccccc1c2C=Nc1ccccc1SSc1ccccc1N [ST 1737, 7–2-(2-aminophenyldithio)phenyliminomethylcamptothecin] the IC50 [2] was 17 nM, the “water solubility (in words)” value [3] was “(water soluble)” and the “Tox (Dead/treated mice)” value ([4]; 4 mg/kg per os) was 0/4. The “TVI % (tumor volume inhibition % in treated over control tumors)” value ([4]; 4 mg/kg per os) was 69%, the “Tox (Dead/treated mice)” value ([4]; 7 mg/kg per os) was 0/4 and the “TVI % (tumor volume inhibition % in treated over control tumors)” value ([4]; 7 mg/kg per os) was 56%. The “BWL % (body weight loss % induced by drug treatment)” value ([4]; 12 mg/kg per os) was 4%, the “Tox (Dead/treated mice)” value ([4]; 12 mg/kg per os) was 0/4 and the “TVI % (tumor volume inhibition % in treated over control tumors)” value ([4]; 12 mg/kg per os) was 68%.
In the case of CC[C@@]1(O)C(=O)OCc2c1cc1n(c2=O)Cc2cc3c(CN(C)C)c(O)ccc3nc2-1 [TPT, Topotecan, reference compound], the “in the cerebrospinal fluid with respect to plasma” value ([1]; 10 min after infusion) is listed as 30%, the “lactone form hydrolysed to open ring” value ([1]; 30 min after infusion) is listed as 50% and the “crossing of the hematoencephalic barrier (in words)” value [1] is listed as “crosses hematoencephalic barrier”. The “ILS % = percent increase in life span” value (L1210 = murine leukemia) was 39%, the TVI % (A2780 ovarian ca) was 96% and the TVI % (HT29 colon ca) was 65%. For the same compound, the “Reversibility / persistence of the DNA cleavages (in words)” value (topoisomerase i) was “almost complete reversibility of the cleavages”, the “PERSISTENCE (%) of DNA cleavage on selected sites” value (topoisomerase i) was 16% and the TVI % (A2780/DDP ovarian ca) was 92%. For the same compound, the TVI % (CoBA colon ca) was 85%, the “Toxicity Lethality” value (lung carcinoma NCI H460; 10 mg/kg p.o.) was 0/5 and the “Efficacy (TVI %)” value (lung carcinoma NCI H460; 10 mg/kg p.o.) was 64%. The “Toxicity Lethality” value (lung carcinoma NCI H460; 15 mg/kg p.o.) was 0/4 and 0/5, the “Efficacy (TVI %)” value (lung carcinoma NCI H460; 15 mg/kg p.o.) was 94% and 89% and the TVI % (JCA-1 prostate ca) was 95%. It also gave a TVI % (IGROV-1 ovarian ca) of 89%, a TVI % (DU145 prostate ca) of 77% and a TVI % (U87 glioblastoma) of 82%. The TVI % (H460 = NSCLC) was 98%, the TVI % (A2780/Dx ovarian ca) was 92% and the “no evidence of tumor at the end of the treatment lasting for about 10 days from the last administration” value (A2780/Dx ovarian ca) was “(2/10*)”. The TVI % (GBM/7 glioblastoma) was 96% and the “no evidence of tumor at the end of the treatment lasting for about 10 days from the last administration” value (GBM/7 glioblastoma) was “(1/10*)”.

— patent publication US7105492B2, “Camptothecin derivatives having antitumor activity” (priority 1999, dated 2006)
